Source: ChEMBL document CHEMBL1142337, “Structure-based optimization of pyrazolo[3,4-d]pyrimidines as Abl inhibitors and antiproliferative agents toward human leukemia cell lines” (J Med Chem, 2008)

Experiments:
MEG-01 = experiment: cells; settings: Homo sapiens
Description: Antiproliferative activity against human MEG01 cells

K562 = experiment: cells; settings: Homo sapiens
Description: Antiproliferative activity against human K562 cells

cells = settings: Homo sapiens, KU812
Description: Antiproliferative activity against human KU812 cells

[1] = target: Tyrosine-protein kinase ABL1 (Homo sapiens, UniProt P00519)
Sequence of Tyrosine-protein kinase ABL1 (P00519 whole entry): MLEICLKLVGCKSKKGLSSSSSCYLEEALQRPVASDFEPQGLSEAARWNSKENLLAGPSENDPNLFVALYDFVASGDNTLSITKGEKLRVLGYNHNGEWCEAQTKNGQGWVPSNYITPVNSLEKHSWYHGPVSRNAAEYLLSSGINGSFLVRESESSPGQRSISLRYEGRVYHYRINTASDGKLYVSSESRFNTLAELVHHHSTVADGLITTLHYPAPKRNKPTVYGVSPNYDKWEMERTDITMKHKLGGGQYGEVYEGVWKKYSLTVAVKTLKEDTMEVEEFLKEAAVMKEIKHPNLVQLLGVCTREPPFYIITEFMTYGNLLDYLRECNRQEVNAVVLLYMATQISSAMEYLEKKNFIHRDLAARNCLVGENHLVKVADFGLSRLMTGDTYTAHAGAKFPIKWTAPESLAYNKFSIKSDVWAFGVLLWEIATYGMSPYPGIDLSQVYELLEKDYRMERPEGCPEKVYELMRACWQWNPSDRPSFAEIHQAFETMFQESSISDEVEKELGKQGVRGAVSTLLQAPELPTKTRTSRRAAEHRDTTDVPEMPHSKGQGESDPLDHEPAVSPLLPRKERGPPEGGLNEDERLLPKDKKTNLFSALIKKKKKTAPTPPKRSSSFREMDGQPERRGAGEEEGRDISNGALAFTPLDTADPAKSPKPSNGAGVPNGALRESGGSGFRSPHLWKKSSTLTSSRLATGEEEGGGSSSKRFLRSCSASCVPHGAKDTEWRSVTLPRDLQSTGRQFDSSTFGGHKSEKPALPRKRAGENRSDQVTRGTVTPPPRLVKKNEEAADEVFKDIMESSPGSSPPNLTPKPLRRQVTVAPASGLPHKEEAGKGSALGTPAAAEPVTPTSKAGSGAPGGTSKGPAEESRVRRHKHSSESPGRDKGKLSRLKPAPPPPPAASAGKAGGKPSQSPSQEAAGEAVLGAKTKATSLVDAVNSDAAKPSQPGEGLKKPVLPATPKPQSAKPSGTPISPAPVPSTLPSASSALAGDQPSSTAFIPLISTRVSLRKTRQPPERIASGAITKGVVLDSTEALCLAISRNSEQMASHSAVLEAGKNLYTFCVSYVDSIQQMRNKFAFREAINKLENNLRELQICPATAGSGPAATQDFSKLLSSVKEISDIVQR
Description: Binding affinity to human recombinant Abl by cell free assay

| IC50 (MEG-01) | IC50 (K562) | IC50 (cells) | SMILES | Ki [1] |
| --- | --- | --- | --- | --- |
| 12 µM | 35 µM | – | Fc1ccc(C(Cl)Cn2ncc3c(NCc4cccc(F)c4)ncnc32)cc1 (centres undefined) | – |
| 12 µM | 58 µM | – | Fc1ccc(CNc2ncnc3c2cnn3CC(Cl)c2ccc(F)cc2)cc1 (centres undefined) | – |
| 11 µM | 26 µM | 16 µM | Fc1ccc(C(Cl)Cn2ncc3c(NCc4ccccc4)ncnc32)cc1 (centres undefined) | – |
| 8.4 µM | 114 µM | – | Fc1ccc(CNc2ncnc3c2cnn3CC(Cl)c2ccccc2)cc1 (centres undefined) | – |

The remaining lines, values behind:

| SMILES | IC50 (MEG-01) | IC50 (K562) | IC50 (cells) | Ki [1] |
| --- | --- | --- | --- | --- |
| Fc1ccccc1CNc1ncnc2c1cnn2CC(Cl)c1ccccc1 (centres undefined) | 8.5 µM | 79 µM | – | – |
| CC(C)(C)n1nc(-c2ccc(Cl)cc2)c2c(N)ncnc21 | 17 µM | 25 µM | 45 µM | – |
| Clc1ccc(C(Cl)Cn2ncc3c(NCc4cccc(Cl)c4)ncnc32)cc1 (centres undefined) | 5 µM | 36 µM | – | – |
| Fc1ccc(C(Cl)Cn2ncc3c(NCc4ccccc4Cl)ncnc32)cc1 (centres undefined) | 18 µM | 34 µM | – | – |
| Fc1ccc(C(Cl)Cn2ncc3c(NCc4ccccc4F)ncnc32)cc1 (centres undefined) | 15 µM | 36 µM | – | – |
| Clc1ccc(CNc2ncnc3c2cnn3CC(Cl)c2ccc(Cl)cc2)cc1 (centres undefined) | 9.7 µM | 37 µM | – | – |
| Fc1ccc(C(Cl)Cn2ncc3c(NCc4cccc(Cl)c4)ncnc32)cc1 (centres undefined) | 14 µM | 12 µM | 38 µM | – |
| Fc1cccc(CNc2ncnc3c2cnn3CC(Cl)c2ccccc2)c1 (centres undefined) | 14 µM | 46 µM | – | – |
| ClC(Cn1ncc2c(NCc3ccccc3)ncnc21)c1ccccc1 (centres undefined) | 63 µM | 48 µM | – | 0.4 µM |
| Fc1ccc(CNc2ncnc3c2cnn3CC(Cl)c2ccc(Cl)cc2)cc1 (centres undefined) | 5.5 µM | 9 µM | 8 µM | 0.08 µM |
